Data from US20080153872A1, “Bis-(Coumarin) Compounds With Anti-Inflammatory Activity” (priority 2005, published 2008).

Tests used:
[1] = target: T1, human PDE3 (Homo sapiens, UniProt Q14432); assay: Human PDE3 assay (platelets); format: biochemical; conditions: 10 μM concentration
T1 construct: Isolated human platelets are pre-incubated at 25° C; from tissue; host or cells: human platelets
Procedure: (§1) All compounds were dissolved in dimethyl sulfoxide (DMSO). Final concentration of the DMSO in all tests was 1% (v/v). Inhibition in all tests is considered preferred if it exceeds 50% at 10 μM concentration (or less).
(§2) PDE3 assay. Isolated human platelets are pre-incubated at 25° C. in Tris-HCl buffer containing magnesium ions for 15 minutes. 1.01 μM tritium labeled cyclic adenosine monophosphate (cAMP) is added as substrate, followed by incubation at 25° C. for 20 minutes. Percentage of inhibition is calculated by comparing the adenosine levels in supernatant which is formed from cAMP in treated versus control cells.

[2] = target: T2, human 5-LO (Homo sapiens, UniProt P09917); assay: Human 5-Lipoxygenase, 5-LO, assay in peripheral mononuclear blood cells; format: cell-based; conditions: 10 μM concentration, LTB4 readout
T2 construct: Human peripheral mononuclear blood cells were isolated using Ficoll density separation; endogenous in cells; host or cells: human peripheral blood mononuclear cells
T2 sequence (P09917 1-674): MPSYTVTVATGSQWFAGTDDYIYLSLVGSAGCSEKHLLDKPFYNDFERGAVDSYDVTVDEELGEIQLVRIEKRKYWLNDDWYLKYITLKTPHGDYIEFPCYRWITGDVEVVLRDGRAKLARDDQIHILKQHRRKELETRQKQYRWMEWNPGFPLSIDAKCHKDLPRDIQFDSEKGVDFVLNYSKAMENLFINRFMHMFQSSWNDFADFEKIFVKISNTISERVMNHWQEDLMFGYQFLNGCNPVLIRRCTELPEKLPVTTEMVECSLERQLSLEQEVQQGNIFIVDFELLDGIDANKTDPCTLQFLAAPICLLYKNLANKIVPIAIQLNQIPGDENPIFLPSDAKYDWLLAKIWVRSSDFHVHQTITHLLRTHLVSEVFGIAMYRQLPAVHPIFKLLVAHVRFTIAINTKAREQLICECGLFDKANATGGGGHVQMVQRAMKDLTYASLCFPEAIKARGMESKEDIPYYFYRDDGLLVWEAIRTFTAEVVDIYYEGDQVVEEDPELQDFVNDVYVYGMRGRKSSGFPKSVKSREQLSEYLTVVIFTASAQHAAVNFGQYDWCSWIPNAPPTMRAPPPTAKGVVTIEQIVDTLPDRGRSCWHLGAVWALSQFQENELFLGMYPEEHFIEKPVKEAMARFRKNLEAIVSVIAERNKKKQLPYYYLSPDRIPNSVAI
Procedure: as §1
Human peripheral mononuclear blood cells were isolated using Ficoll density separation. Cells were incubated in Hanks Balanced Salt Solution (HBSS) with compounds for 15 minutes at 37° C. Substrate (arachidonic acid) was added in 20 μM final concentration and cells were incubated for another 15 minutes. LTB4 as a final product of arachidonic acid metabolism was measured using competitive enzyme immunoassay (See, e.g., Safayhi, H. et al. Planta Medica 2000, 66, 110-113) and percentage of inhibition was calculated from the levels of LTB4 in cell supernatant.

[3] = system: Balb/C mice; assay: Ovalbumin induced pulmonary eosinophilia in mice; format: in vivo, mouse; conditions: OVA sensitized and challenged mice; i.n., i.p. or per os
Procedure: Male Balb/C mice with a body weight of 20-25 g are randomly divided into groups, and sensitized by an i.p. injection of ovalbumin (OVA, Sigma) on day zero and day fourteen. On the twentieth day, the mice are subjected to a challenge test by i.n. (intranasal) application of OVA (positive control or test groups) or PBS (negative control). The compounds are administered daily i.n., i.p. or per os in different doses starting 2 days before the challenge and up to the completion of the test. Compounds are administered as suspension either in PBS, methyl cellulose or carboxymethyl cellulose with addition od DMSO (up to 5% of the total volume). 48 hours after i.n. application of OVA, the animals are then anaesthetized to obtain bronchoalveolar lavage fluid (BALF), which is used to determine total protein concentration as well as concentrations of cytokines such as IL-1β and TNF-α, absolute number of cells, and percentage of eosinophils in BALF. Bronchoalveolar lavage (BAL) is performed by infusing 1 mL of PBS divided into 3 separate volumes (0.4, 0.3 and 0.3 ml) through trachea into the lungs. The fluid is immediately withdrawn and the cell suspension stored into previously prepared 1.5 mL Eppendorf tube. Bronchoalveolar lavage fluid (BALF) is then centrifuged at […] for 5 min (4° C.). Cells are resuspended in 700 μL of PBS. To prepare cytospins, 320 μL of suspension is centrifuged at 250 rpm for 10 min (Cytospin-3, Shandon Instruments). Cells are stained with Dif-Quik (Dade Behring) to determine percentage of eosinophils by counting of at least 100 cells. The remaining resuspended cells are used for total cell count in BALF analysis (Sysmex SF 3000). Finally, lungs are sampled and stored into 10% formalin for pathohistological evaluation of eosinophil and mononuclear infiltrate. Accumulation of eosinophils and mononuclear cells in peribronchial (PB) and perivascular (PV) lung tissue areas and in alveolar spaces is monitored.
Results can be expressed as (I) decrease of absolute cell number per mL in BALF, (II) decrease of number of eosinophils per mL in BALF, (III) reduction of relative number (percentage) of eosinophils in BALF, (IV) reduction of cytokine concentrations in BALF, as well as (V) suppression of accumulation of eosinophils and mononuclear cells in peribronchial (PB) and perivascular (PV) lung tissue areas and in alveolar spaces by pathohistological scoring of treated animals compared to positive control (OVA stimulated, but untreated animals).
Fluticasone and beclomethasone are used as standard anti-inflammatory substances, and compared for ability to inhibit eosinophilia to the negative and positive controls.

[4] = system: human PDE4; assay: Human PDE4 assay (U937); format: biochemical; conditions: 10 μM concentration
Procedure: as §1
as §2, with “PDE4” for “PDE3”, “PDE is implicated in diseases such as chronic obstructive pulmonary disease and neutrophilia. Human monocytic leukemia cell line U937 is” for “Isolated human platelets are”

T1 sequence (Q14432 whole entry): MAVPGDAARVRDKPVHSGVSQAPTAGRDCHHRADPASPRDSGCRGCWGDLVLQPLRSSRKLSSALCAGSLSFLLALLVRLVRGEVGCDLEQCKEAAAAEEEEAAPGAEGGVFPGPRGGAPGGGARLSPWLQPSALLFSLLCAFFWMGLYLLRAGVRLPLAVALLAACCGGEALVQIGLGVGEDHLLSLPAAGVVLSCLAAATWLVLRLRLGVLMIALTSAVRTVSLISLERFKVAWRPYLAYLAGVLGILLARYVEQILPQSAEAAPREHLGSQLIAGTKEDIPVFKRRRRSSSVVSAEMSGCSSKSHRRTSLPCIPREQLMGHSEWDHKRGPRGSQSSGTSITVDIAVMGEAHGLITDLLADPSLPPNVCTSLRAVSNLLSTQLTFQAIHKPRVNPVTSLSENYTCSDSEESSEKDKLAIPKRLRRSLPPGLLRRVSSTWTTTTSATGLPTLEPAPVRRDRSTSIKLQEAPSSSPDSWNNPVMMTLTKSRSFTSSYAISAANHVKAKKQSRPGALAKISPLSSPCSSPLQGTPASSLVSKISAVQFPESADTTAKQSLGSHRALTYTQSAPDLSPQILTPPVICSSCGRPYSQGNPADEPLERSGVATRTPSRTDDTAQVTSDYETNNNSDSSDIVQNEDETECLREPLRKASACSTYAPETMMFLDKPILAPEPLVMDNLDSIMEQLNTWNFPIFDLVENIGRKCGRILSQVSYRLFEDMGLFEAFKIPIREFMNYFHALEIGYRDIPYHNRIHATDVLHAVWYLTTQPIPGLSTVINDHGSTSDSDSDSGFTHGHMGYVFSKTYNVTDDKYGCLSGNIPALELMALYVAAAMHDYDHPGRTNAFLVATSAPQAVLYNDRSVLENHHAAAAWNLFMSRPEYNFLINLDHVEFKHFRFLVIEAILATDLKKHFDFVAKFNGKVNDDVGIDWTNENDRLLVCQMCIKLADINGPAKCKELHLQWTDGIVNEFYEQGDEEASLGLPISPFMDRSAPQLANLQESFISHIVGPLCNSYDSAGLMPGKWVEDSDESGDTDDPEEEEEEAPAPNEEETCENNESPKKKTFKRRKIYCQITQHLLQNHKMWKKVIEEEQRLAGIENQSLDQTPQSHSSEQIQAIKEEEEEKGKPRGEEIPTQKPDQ

Structure (SMILES)	inhibition of human PDE3 activity [1]	inhibition of human 5-LO [2]	reduction of percentage of eosinophils and/or their total number in BALF and/or by histological scoring [3]	inhibition of human PDE4 activity [4]
CC(=O)C(c1c(O)c2cccc(C(C)C)c2oc1=O)c1c(O)c2cccc(C(C)C)c2oc1=O [Example 19]	significantly inhibited	significantly relevant activity	statistically significant reduction	significantly inhibited
CC(C)c1cccc2c(O)c(C(CO)c3c(O)c4cccc(C(C)C)c4oc3=O)c(=O)oc12 [Example 30]	significantly inhibited	significantly relevant activity	statistically significant reduction	significantly inhibited
CC(C)c1cccc2c(O)c(C(C(=O)OCCO)c3c(O)c4cccc(C(C)C)c4oc3=O)c(=O)oc12 [Example 50]	significantly inhibited	significantly relevant activity	statistically significant reduction	significantly inhibited
